For data set [1], the system named is vascular and urinary systems. In words: Radiographic visualization in mouse after intravenous injection. The class given is in vivo. The note with it: I.V. Here is the method: A female mouse (19 g) was anesthetized with sodium pentobarbital (60 mg/kg, i/p.).
Data set [2] is described as follows: Stability in aqueous solution by tlc and lc analysis. The class given is physicochemical. Here is the method:
(§1) Nmr data are consistent with the assigned structure IX. The compound softens with darkening at 233°-238° and decomposes above 240°.

The nature of data set [3]: Solubility in water. The class given is physicochemical. Here is the method: as §1
Elemental analysis; Calcd for C21 H26 I3 N3 O14 (after correction for 3.58% H2 O): C, 26.29; H, 3.13; I, 39.67; N, 4.38; Found: C, 26.20; H, 3.12; N, 4.09; I, not determined.

Data set [4] in a line: in vivo. The note with it: rat, in vivo. The source says: (§2) The following pharmacological studies were run on the N-(2-hydroxyethyl)-2,4,6-triiodo-3,5-bis-(2-keto-L-gulonamido)benzamide prepared according to Method B (PRODUCT).
(§3) A variation of the technique described by Melartin et al. (Invest. Radiol. 5: 13-21, 1970) was utilized to evaluate lethal effects of a solution of the PRODUCT after injection into cerebrospinal fluid at the cisterna magna. Young adult male and female Sprague Dawley rats were used. After dosing, the animals were housed individually and observed for immediate reactions and periodically for a two day observation period.

Data set [5] concerns Sprague Dawley rats. As to the kind of experiment: Acute Intracisternal Toxicity in Rats. The note with it: rats, intracisternal, 400 mg I/ml, two day observation; 95% confidence limits 462-655.
From the text: as §2, §3

Data set [6] can be described thus: in vivo. The note with it: mouse, in vivo.
From the text: as §2
(§4) Employing a slightly modified version of the technique developed by Haley and McCormick (Brit. J. Pharmacol. 12: 12-15, 1957), young adult male and female Swiss mice received injections of a solution of the PRODUCT directly into lateral ventricles and brain tissue.

Data set [7] has as its system Swiss mice. As to the kind of experiment: Acute Intracerebral Toxicity in Mice. The note with it: mice, intracerebral, 350-450 mg I/ml, seven day observation; 95% confidence limits 560-4806.
From the text: as §2, §4

The subject of data set [8] is subarachnoid space. In words: Radiographic visualization in rat after intracisternal injection. It counts as in vivo. The note with it: 175 mg I/kg (37% I solution) intracisternally, 10 seconds after administration. As to the method:
A pentobarbital-anesthetized rat (233 gm) received 175 mg I/kg (37% I solution) of the compound intracisternally.

In data set [9] the test system is dogs. As to the kind of experiment: Acute Intracisternal Neurotoxicity in Dogs. The note with it: dog, in vivo. Here is the method:
(§5) Adult dogs of either sex were employed for this procedure and were briefly anesthetized with thiopentol sodium during the injection of a solution of the PRODUCT. The compound was administered into cerebrospinal fluid at the cisterna magna at varying concentrations but at a constant 0.5 ml/kg volume dose. Animals were thereafter observed for neurotoxicity with the following results: […]

Data set [10] can be described thus: Acute Intracisternal Neurotoxicity in Dogs. The note with it: dog, in vivo; dogs, intracisternal, 244 mg I/kg; read-out: Respiratory arrest (death). As to the method:
as §5

Data set [11] is described as follows: in vivo. The note with it: mouse, in vivo, iv. Here is the method: as §2
(§6) A solution of the PRODUCT was injected into the lateral tail vein of yound adult male and female Swiss mice at a rate of 1 ml/min.

Data set [12] concerns Swiss mice. As to the kind of experiment: Acute Intravenous Toxicity in Mice. The note with it: mice, intravenous, 400 mg I/ml, 1 ml/min, seven day observation; 95% confidence limits 16,499-20,075. Here is the method:
as §2, §6

Here are results for 1 compound from patent publication US4284620A, “N-(2-Hydroxyethyl)-2,4,6-triiodo-3,5-bis-(2-keto-L-gulonamido)benzamide and radiological compositions containing same” (Mallinckrodt, Inc., priority 1979, dated 1981).

Converted amounts (≈) assume the structure as drawn. Read-outs that look alike come from different tables or passages of the source.

Consider `O=C(Nc1c(I)c(NC(=O)C(=O)[C@@H](O)[C@H](O)[C@@H](O)CO)c(I)c(C(=O)NCCO)c1I)C(=O)[C@@H](O)[C@H](O)[C@@H](O)CO` [IX, N-(2-Hydroxyethyl)-2,4,6-triiodo-3,5-bis-(2-keto-L-gulonamido)benzamide], for which the “visualization of the vascular system, whole body left lateral radiograph” value in data set [1] (female mouse, 10,000 mg I/kg (37% I solution), 5 seconds after administration) is on record as “good visualization of the vascular system”. Besides, in data set [1] (mouse, 30 seconds after contrast administration), the “images of the vascular system, posteroanterior radiograph” value is reported as “good images of the vascular”. In addition, the “images of the urinary system, posteroanterior radiograph” value in data set [1] (mouse, 5 minutes after contrast administration) was “good images of the vascular and urinary systems”. In addition, in data set [2], the “stable in aqueous solution” value was “stable in aqueous solution”. The solubility in [3] (Method A product, read-out: highly water soluble) is at least 1000 mg/mL; in [3] (Method B product, read-out: solubility), 1000 mg/mL (≈ 1080 mM). This compound registered an LD50 at 48 h in [4] of 1340 mg/kg. Moreover, the figures for the LD50 in [5], in [7] and in data set [12] were 550 mg I/kg, 1,640 mg I/kg and 18,200 mg I/kg, respectively. The LD50 at 168 h in data set [6] amounted to 3980 mg/kg; in [11] it was 44200 mg/kg. Besides, in [8], the “visualization of the subarachnoid space in the upper cervical, cisternal and basal cistern regions” value was “good visualization of the subarachnoid space”. Further, the “Minimum Convulsion Dose” value in data set [9] is given as above 244 mg I/kg. In addition, the mortality in data set [10] came out at 50%.
